# In patent publication US20090074815A1, “Immunomodulator Compounds as Vaccine Enhancers” (SCICLONE PHARMACEUTICALS, INC., priority 2005, published 2009):
# Values joined by “and” are separate entries in the source; they are usually repeats but may differ in a detail not shown here. Identical values can stand only once. Like-named read-outs stand apart in the source and are kept apart here.
# Assays:
# thymic cells = test: ConA-induced proliferation of thymic cells (3H-thymidine uptake); format: in vivo, mice; details: thymic cells; for Induced proliferation (cpm) M ± SD / Stimulation index: ConA 1 μg/ml
# Text: Materials and Methods: Eighteen (18) to twenty (20) gram (g) male mice, purchased from the Rappolovo Animal Facility, Russia, were used in the studies described below. C57BL/6 (B6) mice were used to evaluate the effect of SCV-07 in non-immunized mice. CBAxC57BL/6 (F1) mice were used for studies of the effects of SCV-07 on the antigen-specific immune response. Mice were kept under the standard animal facility conditions and were provided with a standard diet and water ad libitum. Each treatment group included 4-5 mice. […] A suspension containing filling agents alone, which corresponded to the maximum amount of filling agents in the doses of SCV-07 administered to experimental animals, was used a control. […] Assessment of Mitogen- and Antigen-Induced Proliferation: […] Antigen-specific proliferation was studied by stimulating thymocytes and splenoctyes in vitro with different concentrations of OvA for 96 h. Twenty (20) to twenty-four (24) hours prior to completion of incubation, 3H-labeled thymidine (5 μCi/ml) was added to the cells. The cells were then transferred to fiberglass filters with a Titertek® semi-automatic cell harvester. Thymidine uptake was measured using a RackBeta 1217 (Wallac) liquid scintillation β-counter. For quantitative analysis of proliferation, the stimulation index (SI) was calculated as a ratio of the intensity of label inclusion in the stimulated cells to that in non-stimulated cells.
# [1] = tested on: M. tuberculosis strain H37Rv; format: in vivo, mice; details: for CFUs of BCG per ml of Lung Homogenate, MEAN / CFUs of BCG per ml of Lung Homogenate, MEDIAN / CFUs of BCG per ml of Lung Homogenate, individual mice M1-M5: day 61
# [2] = group 3: BCG + 0.01 μg SCV-07 D1-D5
# [3] = group 4: BCG + 0.01 μg SCV-07 D1-D30
# [4] = group 5: BCG + 0.01 μg SCV-07 D1-5, D7, 11, 14, 18, 21, 25, 28
# [5] = group 6: BCG + 0.01 μg SCV-07 D6-D30
# [6] = group 7: BCG + 0.20 μg SCV-07 D1-D5
# [7] = group 8: BCG + 0.20 μg SCV-07 D1-D30
# [8] = group 9: BCG + 0.20 μg SCV-07 D1-5, D7, 11, 14, 18, 21, 25, 28
# [9] = group 10: BCG + 0.20 μg SCV-07 D6-D30
# [10] = group 11: BCG + 2.0 μg SCV-07 D1-D5
# [11] = group 12: BCG + 2.0 μg SCV-07 D1-D30
# [12] = group 13: BCG + 2.0 μg SCV-07 D1-5, D7, 11, 14, 18, 21, 25, 28
# [13] = group 14: BCG + 2.0 μg SCV-07 D6-D30
compound,measurement,setting,value
"N[C@H](CCC(=O)N[C@@H](Cc1c[nH]c2ccccc12)C(=O)O)C(=O)O [SCV-07, γ-D-glutamyl-L-tryptophan]",Induced proliferation (cpm) M ± SD,thymic cells; 0.1 μg/kg per os,9754 ± 1633 cpm
same,Stimulation index,thymic cells; 0.1 μg/kg per os,39.1
same,Induced proliferation (cpm) M ± SD,"thymic cells; 1.0 μg/kg Tablet, per os",10248 ± 1913 cpm
same,Stimulation index,"thymic cells; 1.0 μg/kg Tablet, per os",28.9
same,Induced proliferation (cpm) M ± SD,"thymic cells; 1.0 μg/kg i/p, Table 4",20995 ± 6425 cpm
same,Stimulation index,"thymic cells; 1.0 μg/kg i/p, Table 4",61.4
same,Induced proliferation (cpm) M ± SD,"thymic cells; 1.0 μg/kg i/p, Table 5",33418 ± 3490 cpm
same,Stimulation index,"thymic cells; 1.0 μg/kg i/p, Table 5",49.7
same,Induced proliferation (cpm) M ± SD,thymic cells; 1.0 μg/kg per os,20658 ± 5873 cpm
same,Stimulation index,thymic cells; 1.0 μg/kg per os,104.6
same,Induced proliferation (cpm) M ± SD,"thymic cells; 10.0 μg/kg Tablet, per os",7675 ± 1456 cpm
same,Stimulation index,"thymic cells; 10.0 μg/kg Tablet, per os",24.2
same,Induced proliferation (cpm) M ± SD,thymic cells; 10.0 μg/kg per os,13905 ± 2443 cpm
same,Stimulation index,thymic cells; 10.0 μg/kg per os,56.6
same,Induced proliferation (cpm) M ± SD,thymic cells; 100.0 μg/kg per os,27589 ± 1331 cpm
same,Stimulation index,thymic cells; 100.0 μg/kg per os,101.4
same,proliferation of cells stimulated by the optimal dose of ConA,"thymic cells; per os or i/p, data not shown",did not significantly change
same,dose with optimal enhancing effect of SCV-07 for vaccination with BCG,[1]; about 8-10 μg/kg,0.20 µg
same,"CFUs of BCG per ml of Lung Homogenate, MEAN",[1]; [2],5.0 log10 CFU per milliliter
same,"CFUs of BCG per ml of Lung Homogenate, MEDIAN",[1]; [2],4.9 log10 CFU per milliliter
same,"CFUs of BCG per ml of Lung Homogenate, individual mice M1-M5",[1]; [2],4.8 log10 CFU per milliliter (2×) and 5.3 log10 CFU per milliliter (2×) and 4.9 log10 CFU per milliliter
same,"CFUs of BCG per ml of Lung Homogenate, MEAN",[1]; [3],4.8 log10 CFU per milliliter
same,"CFUs of BCG per ml of Lung Homogenate, MEDIAN",[1]; [3],4.9 log10 CFU per milliliter
same,"CFUs of BCG per ml of Lung Homogenate, individual mice M1-M5",[1]; [3],5.1 log10 CFU per milliliter and 4.8 log10 CFU per milliliter and 5.0 log10 CFU per milliliter and 4.3 log10 CFU per milliliter
same,"CFUs of BCG per ml of Lung Homogenate, MEAN",[1]; [4],4.9 log10 CFU per milliliter
same,"CFUs of BCG per ml of Lung Homogenate, MEDIAN",[1]; [4],5.0 log10 CFU per milliliter
same,"CFUs of BCG per ml of Lung Homogenate, individual mice M1-M5",[1]; [4],5.1 log10 CFU per milliliter (2×) and 5.0 log10 CFU per milliliter and 4.6 log10 CFU per milliliter and 4.8 log10 CFU per milliliter
same,"CFUs of BCG per ml of Lung Homogenate, MEAN",[1]; [5],5.5 log10 CFU per milliliter
same,"CFUs of BCG per ml of Lung Homogenate, MEDIAN",[1]; [5],5.5 log10 CFU per milliliter
same,"CFUs of BCG per ml of Lung Homogenate, individual mice M1-M5",[1]; [5],5.4 log10 CFU per milliliter and 5.5 log10 CFU per milliliter (2×) and 5.7 log10 CFU per milliliter
same,"CFUs of BCG per ml of Lung Homogenate, MEAN",[1]; [6],4.9 log10 CFU per milliliter
same,"CFUs of BCG per ml of Lung Homogenate, MEDIAN",[1]; [6],5.0 log10 CFU per milliliter
same,"CFUs of BCG per ml of Lung Homogenate, individual mice M1-M5",[1]; [6],4.8 log10 CFU per milliliter (2×) and 5.0 log10 CFU per milliliter (2×) and 5.1 log10 CFU per milliliter
same,"CFUs of BCG per ml of Lung Homogenate, MEAN",[1]; [7],4.6 log10 CFU per milliliter
same,"CFUs of BCG per ml of Lung Homogenate, MEDIAN",[1]; [7],4.6 log10 CFU per milliliter
same,"CFUs of BCG per ml of Lung Homogenate, individual mice M1-M5",[1]; [7],4.5 log10 CFU per milliliter and 4.7 log10 CFU per milliliter (2×) and 4.6 log10 CFU per milliliter
same,"CFUs of BCG per ml of Lung Homogenate, MEAN",[1]; [8],4.8 log10 CFU per milliliter
same,"CFUs of BCG per ml of Lung Homogenate, MEDIAN",[1]; [8],4.8 log10 CFU per milliliter
same,"CFUs of BCG per ml of Lung Homogenate, individual mice M1-M5",[1]; [8],4.6 log10 CFU per milliliter and 4.4 log10 CFU per milliliter and 4.9 log10 CFU per milliliter and 5.1 log10 CFU per milliliter and 4.8 log10 CFU per milliliter
same,"CFUs of BCG per ml of Lung Homogenate, MEAN",[1]; [9],5.3 log10 CFU per milliliter
same,"CFUs of BCG per ml of Lung Homogenate, MEDIAN",[1]; [9],5.3 log10 CFU per milliliter
same,"CFUs of BCG per ml of Lung Homogenate, individual mice M1-M5",[1]; [9],5.4 log10 CFU per milliliter and 5.2 log10 CFU per milliliter
same,"CFUs of BCG per ml of Lung Homogenate, MEAN",[1]; [10],5.0 log10 CFU per milliliter
same,"CFUs of BCG per ml of Lung Homogenate, MEDIAN",[1]; [10],5.1 log10 CFU per milliliter
same,"CFUs of BCG per ml of Lung Homogenate, individual mice M1-M5",[1]; [10],5.1 log10 CFU per milliliter (3×) and 4.8 log10 CFU per milliliter (2×)
same,"CFUs of BCG per ml of Lung Homogenate, MEAN",[1]; [11],5.0 log10 CFU per milliliter
same,"CFUs of BCG per ml of Lung Homogenate, MEDIAN",[1]; [11],5.1 log10 CFU per milliliter
same,"CFUs of BCG per ml of Lung Homogenate, individual mice M1-M5",[1]; [11],5.1 log10 CFU per milliliter and 4.8 log10 CFU per milliliter and 5.3 log10 CFU per milliliter (2×) and 4.6 log10 CFU per milliliter
same,"CFUs of BCG per ml of Lung Homogenate, MEAN",[1]; [12],4.9 log10 CFU per milliliter
same,"CFUs of BCG per ml of Lung Homogenate, MEDIAN",[1]; [12],4.8 log10 CFU per milliliter
same,"CFUs of BCG per ml of Lung Homogenate, individual mice M1-M5",[1]; [12],4.8 log10 CFU per milliliter (2×) and 4.7 log10 CFU per milliliter and 5.1 log10 CFU per milliliter and 5.3 log10 CFU per milliliter
same,"CFUs of BCG per ml of Lung Homogenate, MEAN",[1]; [13],5.4 log10 CFU per milliliter
same,"CFUs of BCG per ml of Lung Homogenate, MEDIAN",[1]; [13],5.4 log10 CFU per milliliter
same,"CFUs of BCG per ml of Lung Homogenate, individual mice M1-M5",[1]; [13],5.3 log10 CFU per milliliter (2×) and 5.4 log10 CFU per milliliter and 5.5 log10 CFU per milliliter
